Assay results: patent US20230019491A1, “PYRIMIDINE TBK/IKKe INHIBITOR COMPOUNDS AND USES THEREOF” (Merck Patent GmbH, priority 2017, published 2023)

Assays:
[1] = biological target: T1, TBK1 (Homo sapiens, UniProt Q9UHD2); assay: TBK biochemical assay; conditions: 10 point 1:4 dose response, 30 uM top concentration, 90 min at 25° C., LabChip EZ Reader II; read-out: TBK1_IC50
T1 sequence (Q9UHD2 1-729): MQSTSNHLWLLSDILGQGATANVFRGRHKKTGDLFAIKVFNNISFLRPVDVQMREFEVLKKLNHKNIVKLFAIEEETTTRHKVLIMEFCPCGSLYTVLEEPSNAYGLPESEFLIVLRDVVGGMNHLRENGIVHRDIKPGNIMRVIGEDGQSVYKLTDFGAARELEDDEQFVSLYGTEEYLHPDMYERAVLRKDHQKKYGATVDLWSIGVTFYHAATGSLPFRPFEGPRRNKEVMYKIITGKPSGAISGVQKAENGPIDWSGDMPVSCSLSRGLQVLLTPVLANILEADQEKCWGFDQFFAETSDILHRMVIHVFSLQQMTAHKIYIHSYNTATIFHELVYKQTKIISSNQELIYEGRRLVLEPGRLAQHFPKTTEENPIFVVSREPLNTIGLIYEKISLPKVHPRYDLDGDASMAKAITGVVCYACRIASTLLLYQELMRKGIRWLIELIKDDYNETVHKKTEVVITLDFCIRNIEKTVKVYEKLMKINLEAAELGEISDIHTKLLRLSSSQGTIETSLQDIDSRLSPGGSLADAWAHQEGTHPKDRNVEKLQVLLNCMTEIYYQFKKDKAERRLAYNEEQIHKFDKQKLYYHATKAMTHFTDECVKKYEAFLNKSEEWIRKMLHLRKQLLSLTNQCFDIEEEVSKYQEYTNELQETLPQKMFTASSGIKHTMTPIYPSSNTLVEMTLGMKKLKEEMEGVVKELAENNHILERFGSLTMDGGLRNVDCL
How it was run: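 Read-out was a Caliper LabChip mobility-shift assay, run after a 90-min, 25 °C reaction of TBK1 with substrate and compounds, quenched with stop buffer. Control wells received staurosporine at 10 uM final.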

[2] = biological target: T2, IKKε (Homo sapiens, UniProt Q14164); assay: IKKε biochemical assay; conditions: 10 point 1:4 dose response, 30 uM top concentration, 90 min at 25° C., LabChip EZ Reader II; read-out: IKKε_IC50
T2 sequence (Q14164 1-716): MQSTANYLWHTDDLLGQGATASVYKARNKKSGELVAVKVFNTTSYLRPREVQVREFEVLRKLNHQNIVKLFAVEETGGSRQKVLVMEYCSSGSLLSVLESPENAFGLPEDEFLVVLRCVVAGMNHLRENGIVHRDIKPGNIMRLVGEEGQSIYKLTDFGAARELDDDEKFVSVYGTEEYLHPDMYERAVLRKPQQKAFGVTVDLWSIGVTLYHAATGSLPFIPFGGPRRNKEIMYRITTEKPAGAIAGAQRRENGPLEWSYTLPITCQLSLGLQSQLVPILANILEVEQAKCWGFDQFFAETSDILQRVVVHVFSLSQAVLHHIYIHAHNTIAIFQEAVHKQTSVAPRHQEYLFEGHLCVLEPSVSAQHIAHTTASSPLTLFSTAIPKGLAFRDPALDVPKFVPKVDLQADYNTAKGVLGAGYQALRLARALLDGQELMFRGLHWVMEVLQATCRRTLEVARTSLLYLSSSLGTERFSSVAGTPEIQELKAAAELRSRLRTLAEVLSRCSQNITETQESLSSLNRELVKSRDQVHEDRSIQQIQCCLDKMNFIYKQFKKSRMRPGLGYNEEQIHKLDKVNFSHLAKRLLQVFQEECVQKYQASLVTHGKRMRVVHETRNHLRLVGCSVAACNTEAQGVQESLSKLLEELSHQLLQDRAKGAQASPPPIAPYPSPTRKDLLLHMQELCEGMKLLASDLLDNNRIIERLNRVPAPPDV
How it was run: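 Mobility-shift LabChip read-out followed a 90 min, 25° C. reaction of IKKε with substrate and test compound, with DMSO held at 1% final. Reactions were ended with stop buffer. Wells with 10 uM final staurosporine defined complete inhibition, and DMSO-only wells the uninhibited level.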

| IC50 [1] | IC50 [2] | SMILES |
| --- | --- | --- |
| < 0.1 µM | < 0.1 µM | COc1nc(Nc2nccc(-c3ccc(OC4CCN(C(=O)CO)CC4(F)F)c(C#N)c3)n2)ccc1N1CCN(C)CC1 (stereo not shown) [Example 99, 2-[[3,3-difluoro-1-(2-hydroxyacetyl)piperidin-4-yl]oxy]-5-(2-[[6-methoxy-5-(4-methylpiperazin-1-yl)pyridin-2-yl]amino]pyrimidin-4-yl)benzonitrile] |
| < 0.1 µM | < 0.1 µM | COc1nc(Nc2nccc(-c3ccc(O[C@H]4CCN(C(=O)CO)CC4(F)F)c(C#N)c3)n2)ccc1N1CCN(C)CC1 [Example 100, 2-[[(4S)-3,3-difluoro-1-(2-hydroxyacetyl)piperidin-4-yl]oxy]-5-(2-[[6-methoxy-5-(4-methylpiperazin-1-yl)pyridin-2-yl]amino]pyrimidin-4-yl)benzonitrile] |
| < 0.1 µM | < 0.1 µM | COc1nc(Nc2nccc(-c3ccc(O[C@@H]4CCN(C(=O)CO)CC4(F)F)c(C#N)c3)n2)ccc1N1CCN(C)CC1 [Example 101, 2-[[(4R)-3,3-difluoro-1-(2-hydroxyacetyl)piperidin-4-yl]oxy]-5-(2-[[6-methoxy-5-(4-methylpiperazin-1-yl)pyridin-2-yl]amino]pyrimidin-4-yl)benzonitrile] |
| < 0.1 µM | < 0.1 µM | COc1nc(Nc2nccc(-c3ccc(OC4CCN(C(=O)[C@@H](C)O)CC4(F)F)c(C#N)c3)n2)ccc1N1CCN(C)[C@@H](C)C1 (stereo partly drawn) [Example 102, 2-[3,3-Difluoro-1-((R)-2-hydroxy-propionyl)-piperidin-4-yloxy]-5-{2-[5-((S)-3,4-dimethyl-piperazin-1-yl)-6-methoxy-pyridin-2-ylamino]-pyrimidin-4-yl}-benzonitrile] |
| < 0.1 µM | < 0.1 µM | COc1nc(Nc2nccc(-c3ccc(OC4CCN(C(=O)[C@@H](C)O)CC4(F)F)c(C#N)c3)n2)ccc1N1CCN(C)[C@H](C)C1 (stereo partly drawn) [Example 103, 2-[3,3-Difluoro-1-((R)-2-hydroxy-propionyl)-piperidin-4-yloxy]-5-{2-[5-((R)-3,4-dimethyl-piperazin-1-yl)-6-methoxy-pyridin-2-ylamino]-pyrimidin-4-yl}-benzonitrile] |
| < 0.1 µM | < 0.1 µM | COc1nc(Nc2nccc(-c3ccc(OC4CCN(C(=O)[C@@H](C)O)CC4(F)F)c(C#N)c3)n2)ccc1N1CCN(C)CC1 (stereo partly drawn) [Example 104, 2-[3,3-Difluoro-1-((R)-2-hydroxy-propionyl)-piperidin-4-yloxy]-5-{2-[6-methoxy-5-(4-methyl-piperazin-1-yl)-pyridin-2-ylamino]-pyrimidin-4-yl}-benzonitrile] |
| < 0.1 µM | < 0.1 µM | COc1nc(Nc2nccc(-c3ccc(OC4CCN(C(=O)[C@H](C)O)CC4(F)F)c(C#N)c3)n2)ccc1N1CCN(C)[C@@H](C)C1 (stereo partly drawn) [Example 105, 2-[3,3-Difluoro-1-((S)-2-hydroxy-propionyl)-piperidin-4-yloxy]-5-{2-[5-((S)-3,4-dimethyl-piperazin-1-yl)-6-methoxy-pyridin-2-ylamino]-pyrimidin-4-yl}-benzonitrile] |
| < 0.1 µM | < 0.1 µM | COc1nc(Nc2nccc(-c3ccc(OC4CCN(C(=O)[C@H](C)O)CC4(F)F)c(C#N)c3)n2)ccc1N1CCN(C)[C@H](C)C1 (stereo partly drawn) [Example 106, 2-[3,3-Difluoro-1-((S)-2-hydroxy-propionyl)-piperidin-4-yloxy]-5-{2-[5-((R)-3,4-dimethyl-piperazin-1-yl)-6-methoxy-pyridin-2-ylamino]-pyrimidin-4-yl}-benzonitrile] |
| < 0.1 µM | < 0.1 µM | COc1nc(Nc2nccc(-c3ccc(OC4CCN(C(=O)[C@H](C)O)CC4(F)F)c(C#N)c3)n2)ccc1N1CCN(C)CC1 (stereo partly drawn) [Example 107, 2-[3,3-Difluoro-1-((S)-2-hydroxy-propionyl)-piperidin-4-yloxy]-5-{2-[6-methoxy-5-(4-methyl-piperazin-1-yl)-pyridin-2-ylamino]-pyrimidin-4-yl}-benzonitrile] |
| < 0.1 µM | < 0.1 µM | COc1nc(Nc2nccc(-c3ccc(OC4CCNCC4(F)F)c(C#N)c3)n2)ccc1N1CCN(C)C[C@H]1C (stereo partly drawn) [Example 108, 2-(3,3-Difluoro-piperidin-4-yloxy)-5-{2-[5-((R)-2,4-dimethyl-piperazin-1-yl)-6-methoxy-pyridin-2-ylamino]-pyrimidin-4-yl}-benzonitrile] |
| < 0.1 µM | < 0.1 µM | COc1nc(Nc2nccc(-c3ccc(OC4CCNCC4(F)F)c(C#N)c3)n2)ccc1N1CCN(C)C[C@@H]1C (stereo partly drawn) [Example 109, 2-(3,3-Difluoro-piperidin-4-yloxy)-5-{2-[5-((S)-2,4-dimethyl-piperazin-1-yl)-6-methoxy-pyridin-2-ylamino]-pyrimidin-4-yl}-benzonitrile] |
| < 0.1 µM | < 0.1 µM | COc1nc(Nc2nccc(-c3ccc(OC4CCN(C(=O)[C@@H](C)O)CC4(F)F)c(C#N)c3)n2)ccc1N1CCN(C)C[C@@H]1C (stereo partly drawn) [Example 111, 2-[3,3-Difluoro-1-((R)-2-hydroxy-propionyl)-piperidin-4-yloxy]-5-{2-[5-((S)-2,4-dimethyl-piperazin-1-yl)-6-methoxy-pyridin-2-ylamino]-pyrimidin-4-yl}-benzonitrile] |
| < 0.1 µM | < 0.1 µM | COc1nc(Nc2nccc(-c3ccc(OC4CCN(C(=O)[C@H](C)O)CC4(F)F)c(C#N)c3)n2)ccc1N1CCN(C)C[C@@H]1C (stereo partly drawn) [Example 113, 2-[3,3-Difluoro-1-((S)-2-hydroxy-propionyl)-piperidin-4-yloxy]-5-{2-[5-((S)-2,4-dimethyl-piperazin-1-yl)-6-methoxy-pyridin-2-ylamino]-pyrimidin-4-yl}-benzonitrile] |
| < 0.1 µM | < 0.1 µM | COc1nc(Nc2nccc(-c3ccc(OC4CCN(C(=O)C(C)(C)O)CC4(F)F)c(C#N)c3)n2)ccc1N1CCN(C)C[C@H]1C (stereo partly drawn) [Example 114, 2-[3,3-Difluoro-1-(2-hydroxy-2-methyl-propionyl)-piperidin-4-yloxy]-5-{2-[5-((R)-2,4-dimethyl-piperazin-1-yl)-6-methoxy-pyridin-2-ylamino]-pyrimidin-4-yl}-benzonitrile] |
| < 0.1 µM | < 0.1 µM | COc1nc(Nc2nccc(-c3ccc(O[C@H]4CCN(C(=O)c5cnn[nH]5)C[C@H]4F)c(C#N)c3)n2)ccc1N1CCN(C2COC2)CC1 [Example 115, 2-[[(3R,4S)-3-fluoro-1-[(1H-1,2,3-triazol-5-yl)carbonyl]piperidin-4-yl]oxy]-5-[2-([6-methoxy-5-[4-(oxetan-3-yl)piperazin-1-yl]pyridin-2-yl]amino)pyrimidin-4-yl]benzonitrile] |
| < 0.1 µM | < 0.1 µM | COc1nc(Nc2nccc(-c3ccc(O[C@H]4CCN(C(=O)[C@H](C)O)C[C@H]4F)c(C#N)c3)n2)ccc1N1CCN(C2COC2)CC1 [Example 116, 2-[(3R,4S)-3-Fluoro-1-((S)-2-hydroxy-propionyl)-piperidin-4-yloxy]-5-{2-[6-methoxy-5-(4-oxetan-3-yl-piperazin-1-yl)-pyridin-2-ylamino]-pyrimidin-4-yl}-benzonitrile] |
| < 0.1 µM | < 0.1 µM | COc1nc(Nc2nccc(-c3ccc(O[C@@H]4CCN(C(=O)[C@@H](C)O)C[C@@H]4F)c(C#N)c3)n2)ccc1N1CCN(C2COC2)CC1 [Example 117, 2-[(3S,4R)-3-Fluoro-1-((R)-2-hydroxy-propionyl)-piperidin-4-yloxy]-5-{2-[6-methoxy-5-(4-oxetan-3-yl-piperazin-1-yl)-pyridin-2-ylamino]-pyrimidin-4-yl}-benzonitrile] |
